Usually IC50 stands for the concentration at which inhibition is half-maximal.

Data on seven compounds can be found in patent US4626540A, “Substituted 1-amino-4-nitro-acridinones and methods of treating bacterial infections and leukemia with them” (Warner-Lambert Company, priority 1984, dated 1986).

Molecules are shown by their SMILES. In brackets after ≈: the same amount, converted by molar mass. Structures can show the parent of a compound that is named as a salt.

In experiment [1] the test system is L1210 murine leukemia cell lines. Description: In vitro antitumor screening (PDC test), L1210 murine leukemia cell growth. It counts as cell-based. The note with it: Mus musculus, 72 h; L1210 cells, 37° C., three days; value is ID50 multiplied by 10^7.
The next experiment has as its system HCT-8 cells. Put plainly: In vitro proliferating human colon adenocarcinoma (HCA) cell screen, HCT-8 cells.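 Further: ID50 is the molar concentration giving 50% growth inhibition.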 Format: cell-based. The note with it: 60-65 hours at 37° C., value is ID50 multiplied by 10^7. On the procedure: One test protocol is the in vitro proliferating human colon adenocarcinoma (HCA) cell screen. In this test, HCT-8 cells (HCA cell line received from Yale University) are trypsinized using trypsin-EDTA. A single cell suspension is achieved by passing the cells through a 26-gauge needle with a 20-cc syringe. A cell suspension is prepared using RPMI 1640+10% FCS+50 μg/ml gentamicin sulfate with a cell concentration of approximately 5,000 cells/ml. The cell suspension is dispensed in Linbro 24-well plates; 1 ml/well. The plates are incubated for approximately 48 hours at 37° C. in a 5% CO2 atmosphere. At this time test compounds are added in the appropriate concentration. Ten μl of the appropriate dilution is added to each well for a titration test. The plates are reincubated an additional 60-65 hours at 37° C. in a 5% CO2 atmosphere. The cells are lysed using a mix of cationic surfactant, glacial acetic acid and sodium chloride. Two ml of the lysed cell suspension from each well is added to 8 ml of diluent. The number of nuclei is determined using a Coulter counter (ZBI model), and a percent growth for each drug concentration is calculated.

For experiment [2], the system named is lymphocytic leukemia P388. Description: In vivo lymphocytic leukemia P388 test. The note with it: Mus musculus, P388, ip, intraperitoneal, once daily for five days, survival time treated/control, read-out: P388 in vivo T/C × 100. The arrangement: species or system CD2 F1 mice. Summed up: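 CD2 F1 mice (six or seven per group) received P388 leukemia cells intraperitoneally in diluted ascitic fluid, then compound i.p. once daily for five consecutive days at various doses. Survival was followed for 30 days; activity expressed as treated/control survival time ratio ×100, efficacy criterion ≥125.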

The next experiment has as its system Escherichia coli. Description: In vitro antibacterial (ABMF) microdilution test, Escherichia coli. The note with it: Mueller-Hinton broth, 37° C., 16-24 hours, read-out: ABMF minimal inhibitory conc, E. coli. Format: cell-based. Put shortly: (§1)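 A modified standard microdilution procedure in Mueller-Hinton broth is used, testing the compound across eight concentrations between 1000 and 0.46 micrograms per milliliter.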
For orientation: Broth dilution looks for growth in wells or tubes with falling amounts of substance.

In experiment [3] the test system is Corynebacterium Sp. ATCC 21698. Description: In vitro antibacterial (ABMF) microdilution test, Corynebacterium Sp. It counts as cell-based. The following applies: ATCC21698, Mueller-Hinton broth, 37° C., 16-24 hours, read-out: ABMF minimal inhibitory conc, Coryn. Species. Put shortly:
as §1

A further experiment has as its system Branhamella catarrhalis. Description: In vitro antibacterial (ABMF) microdilution test, Branhamella catarrhalis. It counts as cell-based. The following applies: Moraxella catarrhalis; Mueller-Hinton broth, 37° C., 16-24 hours; read-out: ABMF minimal inhibitory conc, B. cat. Summed up:
as §1

The test system of the next experiment is Streptococcus pneumoniae. Put plainly: In vitro antibacterial (ABMF) microdilution test, Streptococcus pneumoniae. Format: cell-based. The following applies: Mueller-Hinton broth, 37° C., 16-24 hours, read-out: ABMF minimal inhibitory conc, S. pneu. Put shortly:
as §1

The next experiment deals with Bacillus cereus. Description: In vitro antibacterial (ABMF) microdilution test, Bacillus cereus. The note with it: Mueller-Hinton broth, 37° C., 16-24 hours, read-out: ABMF minimal inhibitory conc, B. cer. Format: cell-based. Summed up:
as §1

`CN(C)CCCNc1ccc([N+](=O)[O-])c2[nH]c3ccccc3c(=O)c12.CS(=O)(=O)O` [Example 20, 1-[[3-(Dimethylamino)propyl]amino]-4-nitro-9(10H)-acridinone, methanesulfonate (1:1)]: the half-maximal inhibitory concentration (IC50) in experiment [1] came to 570 nM; in the experiment on HCT-8 cells, 200 nM. For the same compound, the response vs control in vivo at 50 mg/kg in experiment [2] is 144%. Moreover, the response vs control in vivo at 100 mg/kg in experiment [2] is 189%. For the same compound, the MIC in the experiment on Escherichia coli is 1.4 µg/mL; in experiment [3], under 0.46 µg/mL; in the experiment with Branhamella catarrhalis it was under 0.46 µg/mL; with Streptococcus pneumoniae, under 0.46 µg/mL; with Bacillus cereus, 4.1 µg/mL.

Turning to `CN(C)CCCNc1ccc([N+](=O)[O-])c2[nH]c3ccc(O)cc3c(=O)c12` [Example 21], the IC50 came to 19 nM in experiment [1] and 2.8 nM in the experiment with HCT-8 cells. Also, the response vs control in vivo at 1.56 mg/kg in experiment [2] (1.56 mg/kg) was found to be 162%. In addition, the response vs control in vivo at 3.12 mg/kg in experiment [2] (3.12 mg/kg) is 187%. Moreover, the response vs control in vivo at 6.25 mg/kg in experiment [2] amounted to 234%. Moreover, the MIC in the experiment with Escherichia coli is under 0.46 µg/mL; in experiment [3], 0.46 µg/mL (≈ 1.29 µM); in the experiment on Branhamella catarrhalis it was under 0.46 µg/mL; in the experiment on Streptococcus pneumoniae, 0.46 µg/mL (≈ 1.29 µM); with Bacillus cereus, under 0.46 µg/mL.

`COc1ccc2[nH]c3c([N+](=O)[O-])ccc(NCCCN(C)C)c3c(=O)c2c1` [Example 22, 1-[[3-(Dimethylaminopropyl)amino]-7-methoxy-4-nitro-9(10H)-acridinone, methanesulfonate (1:1), hemihydrate]: the IC50 was 1200 nM in experiment [1] and 260 nM in the experiment with HCT-8 cells. For the same compound, the response vs control in vivo at 6.25 mg/kg in experiment [2] is 138%. In addition, in experiment [2], the response vs control in vivo at 12.5 mg/kg was determined as 156%. Moreover, the response vs control in vivo at 25 mg/kg in experiment [2] stood at 178%. For the same compound, in experiment [2], the response vs control in vivo at 50 mg/kg was found to be 225%. In addition, in experiment [2], the response vs control in vivo at 100 mg/kg was 205%. Also, the MIC was 1.4 µg/mL in the experiment on Escherichia coli; under 0.46 µg/mL in experiment [3]; under 0.46 µg/mL in the experiment with Branhamella catarrhalis; under 0.46 µg/mL in the experiment on Streptococcus pneumoniae; 4.1 µg/mL with Bacillus cereus.

`CCOc1ccc2[nH]c3c([N+](=O)[O-])ccc(NCCCN(C)C)c3c(=O)c2c1.CS(=O)(=O)O` [Example 23, 1-[[(Dimethylamino)propyl]amino]-7-ethoxy-4-nitro-9(10H)acridinone, methanesulfonate]: the IC50 in experiment [1] was determined as 320 nM; in the experiment on HCT-8 cells it was 200 nM. The response vs control in vivo at 12.5 mg/kg in experiment [2] turned out to be 135%. For the same compound, in experiment [2], the response vs control in vivo at 25 mg/kg amounted to 157%. In experiment [2], the response vs control in vivo at 50 mg/kg was 210%. Besides, the MIC in the experiment with Escherichia coli was under 0.46 µg/mL; in experiment [3], under 0.46 µg/mL; with Branhamella catarrhalis, under 0.46 µg/mL; in the experiment on Streptococcus pneumoniae, 1.4 µg/mL; with Bacillus cereus, 12.3 µg/mL.

In the case of `CCCCOc1ccc2[nH]c3c([N+](=O)[O-])ccc(NCCCN(C)C)c3c(=O)c2c1.CS(=O)(=O)O` [Example 24, 7-Butoxy-1-[[3-(dimethylamino)propyl]amino]-4-nitro-9(10H)-acridinone, methanesulfonate], the IC50 in experiment [1] was 350 nM; in the experiment on HCT-8 cells, 370 nM. Moreover, the response vs control in vivo at 12.5 mg/kg in experiment [2] amounted to 123%. Also, the response vs control in vivo at 25 mg/kg in experiment [2] amounted to 151%. In addition, the MIC in the experiment on Escherichia coli was found to be 12.3 µg/mL; in experiment [3], 4.1 µg/mL; in the experiment with Branhamella catarrhalis, 12.3 µg/mL; in the experiment on Streptococcus pneumoniae it was 1.4 µg/mL; with Bacillus cereus it was 111 µg/mL.

As to `CCN(CC)CCCNc1ccc([N+](=O)[O-])c2[nH]c3ccc(OC)cc3c(=O)c12` [Example 26, 1-[[3-(Diethylamino)propyl]amino]-7-methoxy-4-nitro-9(10H)-acridinone, methanesulfonate (salt) (1:1)], the IC50 in experiment [1] was 78 nM; in the experiment on HCT-8 cells it was 270 nM. In addition, the response vs control in vivo at 12.5 mg/kg in experiment [2] amounted to 127%. Besides, the response vs control in vivo at 25 mg/kg in experiment [2] turned out to be 142%. Besides, the response vs control in vivo at 50 mg/kg in experiment [2] was determined as 161%. For the same compound, the response vs control in vivo at 100 mg/kg in experiment [2] stood at 198%. Moreover, the MIC with Escherichia coli is 12.3 µg/mL; in experiment [3], 0.46 µg/mL; with Branhamella catarrhalis, under 0.46 µg/mL; in the experiment on Streptococcus pneumoniae, 4.1 µg/mL; in the experiment with Bacillus cereus, 12.3 µg/mL.

`COc1ccc2c(c1)c(=O)c1c(NCCCN(C)C)ccc([N+](=O)[O-])c1n2C.CS(=O)(=O)O` [Example 34, 1-[[3-(Dimethylamino)propyl]amino]-7-methoxy-10-methyl-4-nitro-9(10H)-acridinone, methanesulfonate (1:1)]: the IC50 was found to be 780 nM in experiment [1] and 710 nM in the experiment on HCT-8 cells. For the same compound, in experiment [2], the response vs control in vivo at 50 mg/kg was 123%. Besides, the response vs control in vivo at 100 mg/kg in experiment [2] came to 136%. For the same compound, the MIC (in the experiment with Escherichia coli; in experiment [3]; in the experiment with Branhamella catarrhalis; with Streptococcus pneumoniae; in the experiment on Bacillus cereus) was 12.3 µg/mL in each case.
